According to patent US8629328B2 (Monsanto Technology LLC, priority 2006, dated 2014):
Where two headings read alike, the source gives them in different places.

Experiments:
[1] = test system: soybean plants transformed with the DMO-encoding polynucleotide construct (Events 1-4); conditions: early pre-emergence; highest rate 5040 g/ha, 4.5 lb/acre, 9× labeled rate
Experimental: (§1) Transgenic soybean plants were obtained by Agrobacterium transformation of soybean cotyledonary nodes using standard procedures and a binary vector containing the DMO-encoding polynucleotide given as SEQ ID NO:7, which encodes the polypeptide of SEQ ID NO:8. Four transgenic soybean events were prepared and designated Events 1-4. […] Non-transgenic soybean plants were used as controls.
Transgenic and control soybean seeds were planted into 3.5-inch square plastic pots containing Redi-earth™ (Scotts-Siena Horticultural Products Co., Marysville, Ohio). […] The pots were placed on capillary matting in 35 inch×60 inch fiberglass watering trays for overhead and/or sub-irrigation for the duration of the test period so as to maintain optimum soil moisture for plant growth and were fertilized with Osmocote (14-14-14 slow release; Scotts-Siena Horticultural Products Co., Marysville, Ohio) at the rate of 100 gm/cu.ft. to sustain plant growth for the duration of greenhouse trials. […]
(§2) Treated plants in greenhouse trials were visually assessed at a particular day after treatment (DAT) for injury on a scale of 0 to 100 percent relative to untreated control plants, with zero representing “no” injury and 100% representing “complete” injury or death. Data were collected and analyzed using suitable statistical methods.

[2] = test system: soybean plants transformed with the DMO-encoding polynucleotide construct (Events 1-4)
Experimental: as §1
Transgenic and control soybean seeds were planted into 3.5-inch square plastic pots containing Redi-earth™ (Scotts-Siena Horticultural Products Co., Marysville, Ohio). […] The pots were placed on capillary matting in 35 inch×60 inch fiberglass watering trays for overhead and/or sub-irrigation for the duration of the test period so as to maintain optimum soil moisture for plant growth and were fertilized with Osmocote (14-14-14 slow release; Scotts-Siena Horticultural Products Co., Marysville, Ohio) at the rate of 100 gm/cu.ft. to sustain plant growth for the duration of greenhouse trials.
The plants were grown in greenhouses at 27°/21° C. day/night temperature with relative humidity between 25%-75% to simulate warm season growing conditions of late spring. A 14 h minimum photoperiod was provided with supplemental light at about 600 μE as needed.
as §2
The spray nozzle was kept at a height of about 16 inches above the top of the plant material for spraying. The spray volume was 10 gallons per acre or 93 liters per hectare.

[3] = test system: corn inbreds 01CSI6 and LH244; conditions: 0.5 lb/a at V3 followed by 1 lb/a at V8
Text: Transgenic corn plants were produced by the methods known in the art such as WO9506722 and US patent application 20040244075. […] Six events from each of the six constructs were used. […] The entire plot was fertilized uniformly to obtain an agronomically acceptable crop. A soil insecticide such as Force® 3G (Syngenta Crop Protection, Greensboro, N.C., USA) at 5 oz. per 1000 ft. of row for control of corn rootworm was applied at planting time. If black cutworm infestation was observed, POUNCE® 3.2EC at 4 to 8 oz. per acre rate (FMC Corporation, Philadelphia, Pa.) was used. In addition, an insecticide spray program was used to control all above ground lepidopteran pests including European corn borer, corn earworm, and fall armyworm. POUNCE® 3.2EC at 4 to 8 oz. per acre was applied every 3 weeks to control lepidopteran pests; about 4 applications were made. The plot was kept weed free with a pre-emergence application of a herbicide such as Harness® Xtra 5.6 L (Monsanto, St. Louis, Mo.) and Degree Xtra® (Monsanto, St. Louis, Mo.).
Brace root injury was evaluated visually by counting the number of plants in a row showing an “atypical” morphology of having the brace roots fused as compared to a typical morphology of “finger-like” structure.

Compound: COc1c(Cl)ccc(Cl)c1C(=O)O [dicamba, 3,6-dichloro-o-anisic acid]
- injury to the transgenic plants [1]: less than 10%
- injury to transgenic dicamba tolerant plants ([2]; approximately 2× rate of application of 1122 g/ha): less than 2%
- injury to transgenic plants ([2]; at sowing + post-emergence, overall dicamba rate 10080 g/ha, 9 lb/acre, 18× labeled rate): less than 20%
- injury to transgenic events ([2]; late pre-emergence + post-emergence, overall 10080 g/ha, 9 lb/acre, 18× labeled rate): less than 20%
- injury in the transgenic events ([2]; late pre-emergence at soil cracking, 5040 g/ha, 4.5 lb/acre, 9× labeled rate): less than 5%
- Percentage brace root injury ([3]; 01CSI6, susceptible inbred to dicamba): 95.4%
- Percentage brace root injury ([3]; LH244, resistant inbred to dicamba): 93.8%
